Results from patent publication US8630703B2, “Treatment utilizing hydrophobic weak bases chemotherapeutic agents and illumination” (Technion Research & Development Foundation Limited, priority 2011, dated 2014).
Where two headings read alike, the source gives them in different places.

Legend:
[1] = system: SW1573 cells; test: XTT cytotoxicity assay with and without illumination
Protocol: (§1) Parental cells and their MDR (multi-drug resistant) sub-lines were seeded in 96-well plates (2×10^4 cells/well in 90 μl growth medium/well). […] Following incubation for 2 hours, the drug-containing medium was replaced by drug-free medium. The cells were then placed on an illuminator plate (Model 460, thin line series, S&S X-Ray Products Inc., Brooklyn, N.Y.) for 1 hour, thereby achieving a light dose of 5 J/cm^2 white light. After illumination, plates were further incubated for an additional 24 hours.
(§2) Cell viability was determined using an XTT (2,3-bis-(2-methoxy-4-nitro-5-sulfophenyl)-2H-tetrazolium-5-carboxanilide) Cell Proliferation Kit (Biological Industries). […] Results are presented as mean values of at least three independent experiments.

[2] = system: 2008/MRP1 cells; test: as above
Protocol: as §1, §2

[3] = system: human dermis derived endothelial cells (HMEC); test: Fluorescence microscopy of endothelial cells; assay type: cell-based; conditions: 1 μM, blue light (420 nm)
Protocol: Endothelial cell lines RF24 and HMEC, were provided by Dr. H. Pannekoek (CLB, Amsterdam, Netherlands) and Dr. D van der Schaft (Maastricht University), respectively.
Freshly-isolated human umbilical vein endothelial cells (HUVEC), RF24 immortalized HUVEC cells, and human dermis derived endothelial cells (HMEC) were obtained and grown in vitro as described in the Materials and Methods section hereinabove. The cells were then seeded at 10^4 cells/well in a 24-well tissue culture plate. Twenty four hours after seeding, the cells were incubated for 1 hour with 10 or 1 μM of either C-1375, C-1379 or sunitinib. After this incubation, the cells in the 24-well plates were evaluated by fluorescence microscopy. For excitation and detection of imidazoacridinones (IAs) or sunitinib, the microscope was equipped with a filter set (Nikon) characterized by excitation wavelengths of 420±20 nm and emission wavelengths of >470 nm.

[4] = system: MDR SW/2R160 and 2008/MRP1 cells; test: XTT cytotoxicity, result stated jointly for MDR cells; assay type: cell-based
Protocol: as §1
(§3) Cell viability was determined using an XTT (2,3-bis-(2-methoxy-4-nitro-5-sulfophenyl)-2H-tetrazolium-5-carboxanilide) Cell Proliferation Kit (Biological Industries). The drug concentrations required to inhibit cell growth by 50% (i.e., IC50 values) were determined from the cell survival curves in the absence and in the presence of illumination. Results are presented as mean values of at least three independent experiments.

[5] = system: SW1573/2R160 cells; test: XTT cytotoxicity assay with and without illumination
Protocol: Cells were grown in drug-free conditions for one week before any analysis.
as §1, §2

[6] = system: human umbilical vein endothelial cells (HUVEC); test: Fluorescence microscopy of endothelial cells; assay type: cell-based; conditions: 1 μM
Protocol: Human umbilical vein endothelial cells (HUVEC) were isolated by perfusion of umbilical veins (Department of Obstetrics and Gynaecology, VU University Medical Center) with trypsin. Cells were routinely cultured in RPMI-1640 medium (Life Technologies, Breda, The Netherlands) supplemented with 10% heat-inactivated human serum, 10% heat-inactivated FCS, 2 mM L-glutamine (Life Technologies, Netherlands), […] streptomycin and 50 U/ml penicillin (ICN Biomedicals) in a 0.2% gelatin coated 75 cm^2 tissue culture flask at 37° C. in an atmosphere with 5% CO2. HUVEC used for experiments were cultured without addition of extra growth factors and used for experiments between passage 2 and 4.
Freshly-isolated human umbilical vein endothelial cells (HUVEC), RF24 immortalized HUVEC cells, and human dermis derived endothelial cells (HMEC) were obtained and grown in vitro as described in the Materials and Methods section hereinabove. The cells were then seeded at 10^4 cells/well in a 24-well tissue culture plate. Twenty four hours after seeding, the cells were incubated for 1 hour with 10 or 1 μM of either C-1375, C-1379 or sunitinib. After this incubation, the cells in the 24-well plates were evaluated by fluorescence microscopy. […]

[7] = Absorption, emission and excitation spectra; assay type: physicochemical; conditions: aqueous 0.9% NaCl
Protocol: Stock solutions containing sunitinib or the imidazoacridinones (IAs) C-1375 and C-1379 in 100% dimethyl sulfoxide were diluted with aqueous 0.9% NaCl solution under continuous stirring. Absorption spectra were recorded with a two-beam Cary 500 UV-VIS-NIR spectrophotometer (Varian) in 1 cm long Suprasil® quartz cuvettes (Hellma), at an average scan speed of 600 nm/minute, at 20° C. The steady state emission and excitation spectra were recorded with an LS 50B luminescence spectrometer (Perkin-Elmer).

[8] = system: A549 cells; test: XTT cytotoxicity assay with and without illumination; conditions: for Fold sensitization: control vs illumination; for Survival at 3000 nM Control / LD50 Control: no illumination; for LD50 Control: 2 h drug, XTT 24 h later; for LD50 Illumination: white light 1 hour (5 J/cm^2); for Survival at 3000 nM Illumination: white light illumination
Protocol: as §1, §2

[9] = system: A549/K1.5 cells; test: as above; assay type: cell-based, Human; conditions: A549/K1.5; for Fold sensitization: control vs illumination; for LD50 Control / Survival at 3000 nM Control: no illumination; for LD50 Illumination: white light 1 hour (5 J/cm^2); for Survival at 3000 nM Illumination: white light illumination
Protocol: Human non-small cell lung cancer A549 cells and their ABCG2-overexpressing MDR (multi-drug resistant) A549/K1.5 sub-line; ovarian carcinoma cell line 2008 and its stable MRP1-transfectant 2008/MRP1; and human non-small lung cancer cell line SW1573 and its ABCB1-overexpressing subline SW1573/2R160) were maintained in RPMI-1640 medium supplemented with 10% fetal bovine serum, 2 mM glutamine, 100 μg/ml penicillin and streptomycin (Biological Industries, Beth-Haemek, Israel) in a humid atmosphere containing 5% CO2 at 37° C.
as §1, §3

[10] = system: 2008 cells; test: as above
Protocol: as §1, §2

[11] = system: chicken chorioallantoic membrane (CAM) vasculature; test: Chorioallantoic membrane (CAM) model of photodynamic therapy; assay type: in vivo; conditions: 420 nm
Protocol: Fertilized chicken eggs (Animalco AG) were labeled and transferred into a hatching incubator with a relative air humidity of 65% and a temperature of 37° C. The incubator was equipped with an automatic fan (Savimat). On embryonic development day (EDD) 3, a hole of approximately 3 mm in diameter was opened in the eggshell above the air pouch of the egg and covered with Parafilm® wrapping film (Pechiney) to prevent dehydration and possible infections. The eggs were then returned to the incubator in a static position until use. On EDD 11, the hole in the shell was extended to a diameter of approximately 3 cm in order to provide better access to the chorioallantoic membrane (CAM) during experiments.
Eggs were placed under an Eclipse 600 FN epi-fluorescence microscope equipped with a Plan Apo 4/0.2, working distance 20 objective (Nikon). Microscopic observation and illumination of a region of the CAM was performed as described previously [Lim et al., Photochem Photobiol 2010, 86:397-402; Lim et al., J Med Chem 2010, 53:2865-2874; Nowak-Sliwinska et al., Angiogenesis 2010, 13:281-292]. Illumination was provided by a 100 W high pressure Hg-arc lamp. Light doses were adjusted with neutral density filters and measured with a calibrated Field-Master GS power meter (Coherent Inc.). Fluorescence images were acquired with an F-view II 12-bit monochrome Peltier-cooled digital CCD camera driven with analySIS DOCU software (Soft Imaging System GmbH).
For excitation and detection of imidazoacridinones (IAs) or sunitinib, the microscope was equipped with a filter set (Nikon) characterized by excitation wavelengths of 420±20 nm and emission wavelengths of >470 nm,
After the treatment the eggs were numbered, covered and returned to the incubator. Each treatment group included 5 eggs.
Chorioallantoic membranes (CAMs) were intravenously injecting chorioallantoic membranes with 20 μl of a solution of FITC-dextran (20 kDa, 25 mg/ml). Fluorescence angiography was then performed using light from an Hg-arc lamp and light filters (Nikon) which provided excitation wavelengths of 470±20 nm and emission wavelengths of >520 nm for observing the fluorescence. In order to increase the quality of the recorded angiographs, a light absorber, in the form of India ink, was injected (30 μl) into the extra-embryonic cavity. The purpose of this second injection was to decrease the influence of the CAM auto-fluorescence background, which changes rapidly with time due to the embryo's movement. The India ink was filtered shortly before injection, using a sterile cellulose acetate membrane with 0.2 μm pores (Renner GmbH).
Photodynamic therapy (PDT) was performed at embryo development day (EDD) 11, at which stage the CAM is fully developed and contains a vessel network with a regular capillary plexus. The imidazoacridinones were intravenously injected into the main vessel of the CAM through a 33-gauge needle fitted to a 100 μl syringe (Hamilton), at a concentration of 1 mg/ml and a volume of 100 μl, which corresponds to a dose of 100 μg, or approximately 10 mg/kg embryo body weight.
One minute after injection, a region of the CAM which contained vessels of diameters in a range of 5 to 70 μm was illuminated (420±20 nm) at a light dose of 20 J/cm^2 and an irradiance of […]. […]
The illuminated area was 0.02 cm^2, as delimited by an optical diaphragm. The fluorescence of sunitinib was visible in the vasculature of the CAMs prior to PDT.

[12] = system: Human A2780 ovarian carcinoma tumors; test: PDT of tumors transplanted onto CAM; assay type: in vivo; conditions: 12 μg per embryo i.v., 420 nm 34 J/cm^2, two rounds; vs C-1379 without illumination
Protocol: Human A2780 ovarian carcinoma cells were used to establish tumor xenografts in the CAM. Tumor spheroids were grown by a hanging drop technique, resulting in spheroids with a predefined size. A2780 cells were suspended in medium containing 20% Methocel™ (Sigma-Aldrich, St. Louis, USA), and 50 μl drops (1×10^6 cells/drop) were dispensed on the internal part of the lid of a Petri dish. After 24 hours, spheroids were harvested and placed on the CAM at embryonic development day (EDD) 7. Two transplanted human A2780 ovarian carcinoma tumor spheroids, containing 10^6 cells, were grown on a single CAM, and 300 μM C-1379 was injected intravenously at a concentration of 12 μg per embryo at EDD 11.
Prior to further treatment, both tumors were imaged by imidazoacridinone (C-1379) fluorescence angiography, as described hereinabove. One minute after C-1379 administration, one of the tumors was illuminated at a wavelength of 420 nm (34 J/cm^2, 70 mW/cm^2). 24 hours later, both tumors were visualized by FITC-dextran angiography, as described hereinabove, and by standard photography. Immediately thereafter, a second round of C-1379 intravenous administration and PDT (on one of the tumors) was performed as previously. The CAM was then incubated for two more days. […]

[13] = 100 μg/embryo i.v., 20 J/cm^2, 1 minute after injection, 24 hours after treatment

## COc1ccc2c(c1)c(=O)c1c(NCCCN(C)C)ccc3nc(C)n2c31 [C-1375]
[1]; control vs illumination
  Fold sensitization: 24
[1]; illumination
  C-1375 LD50 Illumination: 233 ± 5 nM
  Survival at 1000 nM Illumination: 11 ± 2%
[1]; no illumination
  C-1375 LD50 Control: 5.535 ± 0.596 µM
  Survival at 1000 nM Control: 68 ± 6%
[2]; control vs illumination
  Fold sensitization: 51
[2]; illumination
  C-1375 LD50 Illumination: 101 ± 0.1 nM
  Survival at 1000 nM Illumination: 13 ± 3%
[2]; no illumination
  C-1375 LD50 Control: 5.115 ± 0.889 µM
  Survival at 1000 nM Control: 80 ± 2%
[3]
  photodestruction of lysosomes: lysosome destruction and accumulation of C-1375 in the nuclei also occurred
[4]; illumination, read-out: IC50 with illumination
  IC50: 0.09 to 0.33 µM
[4]; no illumination, read-out: IC50 in the absence of illumination
  IC50: 3.3 to 5.5 µM
[5]; control vs illumination
  Fold sensitization: 13
[5]; illumination
  C-1375 LD50 Illumination: 330 ± 56 nM
  Survival at 1000 nM Illumination: 24 ± 4%
[5]; no illumination
  C-1375 LD50 Control: 4.384 ± 0.125 µM
  Survival at 1000 nM Control: 74 ± 3%
[6]; approximately 2 minutes of illumination
  photodestruction of lysosomes: most of the lysosomes had disappeared
[6]; illumination 1 minute (420 nm)
  photodestruction of lysosomes: many lysosomes were destroyed
[7]
  Peak absorption: 444 nm
  Peak emission: 553 nm
  Peak excitation: 449 nm
[8]
  Fold sensitization: 14
  Survival at 3000 nM Control: 50 ± 3%
  LD50 Control: 3.054 ± 0.26 µM
  LD50 Illumination: 212 ± 29 nM
  Survival at 3000 nM Illumination: 3 ± 2%
[9]
  Fold sensitization: 10
  LD50 Control: 5.264 ± 0.877 µM
  Survival at 3000 nM Control: 70 ± 5%
  LD50 Illumination: 541 ± 56 nM
  Survival at 3000 nM Illumination: 3 ± 0.6%
[10]; control vs illumination
  Fold sensitization: 36
[10]; illumination
  C-1375 LD50 Illumination: 90 ± 9 nM
  Survival at 1000 nM Illumination: 11 ± 4%
[10]; no illumination
  C-1375 LD50 Control: 3.28 ± 0.345 µM
  Survival at 1000 nM Control: 72 ± 0.8%
[11]; [13]
  vascular effect in illuminated area: vaso-occlusion within the illuminated area

## CCN(CC)CCCNc1ccc2nc(C)n3c4ccc(OC)cc4c(=O)c1c23 [C-1379]
[12]
  effect on tumor growth: inhibition of tumor growth
  effect on tumor vasculature: vaso-occlusion and destruction of tumor vasculature
[7]
  Peak absorption: 443 nm
  Peak emission: 554 nm
  Peak excitation: 447 nm
[8]
  Fold sensitization: 32
  Survival at 3000 nM Control: 60 ± 1%
  LD50 Control: 6.349 ± 0.867 µM
  LD50 Illumination: 199 ± 31 nM
  Survival at 3000 nM Illumination: 2 ± 0.3%
[9]
  Fold sensitization: 20
  LD50 Control: 15.192 ± 0.58 µM
  Survival at 3000 nM Control: 82 ± 4%
  LD50 Illumination: 747 ± 45 nM
  Survival at 3000 nM Illumination: 7 ± 0.1%
[11]; 1 μg/embryo i.v., 20 J/cm^2, 24 hours after illumination
  vascular effect in illuminated area: massive occlusion of the capillary network
[11]; [13]
  vascular effect in illuminated area: vaso-occlusion within the illuminated area
